Measured values: a compilation of properties of binary mixtures (doi:10.1007/s10953-009-9410-7)

Assay: xn = mol fraction of the nth substance listed
Details: 101 kPa

CCCC[n+]1ccn(C)c1.N#C[S-] + CCCCCCO
viscosity [mPa·s]
Details | 298.15 K | 308.15 K | 318.15 K | 328.15 K | 338.15 K | 348.15 K
x2 = 0 | 51.7 | 34.9 | 24.2 | 16.7 | 12.7 | 9.98
x2 = 0.0424 | 44.4 | 29.7 | 21 | 15.6 | – | –
x2 = 0.1505 | – | – | 17.7 | 13.3 | 10.3 | 8.26
x2 = 0.3093 | 26.1 | 18.3 | 13.5 | 10.3 | – | 6.54
x2 = 0.453 | 18.2 | – | 9.87 | 7.65 | – | 4.92
x2 = 0.5773 | 13.8 | 10.2 | 7.71 | 6 | – | 3.88
x2 = 0.6307 | 12.1 | 9.01 | – | 5.39 | 4.3 | 3.51
x2 = 0.6962 | 10.3 | 7.67 | 5.87 | – | 3.67 | 3.04
x2 = 0.7583 | 8.77 | 6.54 | 4.98 | – | 3.18 | 2.65
x2 = 0.8512 | 6.83 | 5.15 | 3.99 | – | 2.57 | 2.1
x2 = 0.9102 | 5.87 | – | – | 2.69 | 2.17 | 1.77

CCCC[n+]1ccn(C)c1.N#C[S-] + CCCCCO
viscosity [mPa·s]
Details | 298.15 K | 308.15 K | 318.15 K | 328.15 K | 338.15 K | 348.15 K
x2 = 0 | 51.7 | 34.9 | 24.2 | 16.7 | – | 9.98
x2 = 0.0193 | 46.9 | – | 21.9 | 16.2 | 12.5 | 9.88
x2 = 0.1443 | 34.2 | – | 17 | 12.8 | 9.98 | 7.97
x2 = 0.2751 | 26 | 18.3 | 13.5 | 10.4 | 8.2 | –
x2 = 0.3843 | 20 | 14.4 | 10.9 | 8.49 | – | –
x2 = 0.487 | 15.5 | 11.4 | 8.74 | 6.84 | 5.48 | 4.47
x2 = 0.5557 | 12.7 | 9.5 | – | 5.74 | 4.61 | 3.78
x2 = 0.616 | 10.8 | 8.15 | 6.63 | 5.05 | – | 3.42
x2 = 0.7302 | 7.74 | 5.89 | 4.62 | – | 3.04 | 2.54
x2 = 0.7914 | 6.49 | 4.97 | 3.92 | 3.16 | 2.6 | –
x2 = 0.856 | 5.38 | 4.14 | 3.27 | 2.63 | 2.16 | 1.8
x2 = 0.9135 | 4.56 | – | 2.77 | 2.22 | 1.81 | –

CCCC[n+]1ccn(C)c1.N#C[S-] + CCCCO
viscosity [mPa·s]
Details | 298.15 K | 308.15 K | 318.15 K | 328.15 K | 338.15 K | 348.15 K
x2 = 0 | 51.7 | 34.9 | 24.2 | 16.7 | 12.7 | 9.98
x2 = 0.0911 | 39.2 | 26.5 | – | 14.2 | 11 | 8.82
x2 = 0.3317 | 21.2 | 15.2 | 11.5 | 8.92 | 7.12 | –
x2 = 0.4552 | 15.3 | 11.3 | 8.7 | – | 5.51 | 4.51
x2 = 0.5596 | – | 8.44 | – | 5.16 | – | 3.5
x2 = 0.6222 | – | 7.04 | – | 4.39 | – | 3.02
x2 = 0.6834 | 7.53 | – | – | – | 3.08 | 2.59
x2 = 0.79 | – | 4.12 | 3.3 | 2.69 | 2.24 | 1.89
x2 = 0.8487 | 4.37 | 3.43 | 2.75 | 2.25 | 1.87 | 1.58
x2 = 0.8975 | 3.74 | 2.94 | 2.36 | 1.92 | 1.6 | –
x2 = 0.9738 | – | 2.27 | – | 1.46 | 1.2 | –

CCCCCCO + CCCC[n+]1ccn(C)c1.N#C[S-]
x1 = 1
Details | viscosity [mPa·s]
298.15 K | 4.48
318.15 K | 2.55
328.15 K | 1.98
348.15 K | 1.28

CCCCCO + CCCC[n+]1ccn(C)c1.N#C[S-]
x1 = 1
Details | viscosity [mPa·s]
308.15 K | 2.57
318.15 K | 2
328.15 K | 1.58
338.15 K | 1.27
348.15 K | 1.03

CCCCO + CCCC[n+]1ccn(C)c1.N#C[S-]
x1 = 1
Details | viscosity [mPa·s]
298.15 K | 2.52
308.15 K | 1.97
318.15 K | 1.56
338.15 K | 1.02
